The values below come from patent US11072587B2, “Administration of aurora kinase inhibitors for anti-malarial therapy” (University of Central Florida Research Foundation, Inc., priority 2017, dated 2021).

Experiment [1] relates to chloroquine-resistant P. falciparum Dd2. Nature of the experiment: SYBR Green I-based fluorescence assay, intraerythrocytic growth inhibition. It is filed as cell-based, Plasmodium falciparum. The settings on record: for IC50 / IC90: P. falciparum Dd2, 72 h. The procedure:
Ten millimolar compound stocks in DMSO were diluted by ½, ⅕, and/or 1/10 fold dilutions in ultrapure water or RPMI 1640. Varying concentrations of compound were added to culture at a 1% parasitemia and 2% hematocrit in 96-well black plates. Assay conditions maintained maximum DMSO concentrations less than 0.125% per dilution. Positive (baseline 0% growth) controls consisted of Chloroquine at 1 μM final concentration. Following 72 h incubation at 37° C. in 5% CO2, dilution plates were frozen at −80° C. for a minimum of 30 minutes. Dilution plates were allowed to thaw followed by lysis treatment and SYBR Green I incorporation. DNA quantification was determined using a fluorescence reading on a Synergy H4 multimode plate reader set at 485 nm excitation and 530 nm emission as previously reported (Roberts, Iyamu et al. 2016). EC50 was calculated from a dose response curve that was generated from a concentration range of 0-10 μM using GraphPad Prism v5.0.
Different dilutions of the compound/fraction in 1 μl of the culture medium were added to 99 μl of P. falciparum culture at a 1% parasitemia and 2% hematocrit in 96-well plates. Maximum DMSO concentration in the culture never exceeded 0.125%. Chloroquine at 1 μM was used as a positive control to determine the baseline value. Following 72 hours incubation at 37° C., the plates were frozen at −80° C. After thawing, 100 μL of lysis buffer (with SYBR Green I dye 1:10,000) was added to each well and plates were incubated at room temperature for 30 minutes prior to reading.
80 compounds were screened for their ability to inhibit the intraerythrocytic growth of chloroquine-resistant P. falciparum Dd2 using a SYBR Green I-based fluorescence assay at 1 μM.
(§1) 7 hit compounds and 17 mammalian Aurora A and B inhibitors in clinical trial were screened by SYBR Green I-based fluorescence assay to determine IC50 values in chloroquine-resistant P. falciparum Dd2 and the cytotoxicity was evaluated in 3T3 Mouse fibroblast cells using MTS cytotoxicity assay. The results of the top 2 ASINEX library compounds and 3 commercially available mammalian Aurora A and B inhibitors are shown in Table 1 below with noted structures provided in FIG. 16.

Experiment [2] has as its system 3T3 Mouse fibroblast cells. Nature of the experiment: MTS cytotoxicity assay. The settings on record: for Selectivity Index: 3T3 EC50 versus Dd2 IC50; for EC50 / EC90: cytotoxicity, 3T3 mouse fibroblast cells. It is filed as cell-based. The procedure:
The intraerythrocytic development of the malaria parasite diverges from the paradigm of eukaryotic cell cycle. Novelty of the Plasmodium cell cycle offers opportunities for development of therapeutics directed against essential components. […] Essential Plasmodium Aurora-related kinases (Arks) 1, 2, and 3 are homologous to Aurora A and B, Ser/Thr kinases involved in cell division. […] To discover potent and selective small molecule inhibitors of PfArks, screening was conducted of a library of optimized mammalian Aurora kinase inhibitors that have evolved from a general pharmacophore models for Ser/Thr kinases. In addition, we are also repurposing human Aurora kinase inhibitors to discover antimalarial lead compounds. Novel potent inhibitors (EC50<1 μM) were identified in cell-based screening using SYBR Green I fluorescence based assay. Selectivity of the hits against mammalian cells were determined using the MTS ((3-(4,5 dimethylthiazol-2-yl)-5-(3-carboxymethoxyphenyl)-2-(4-sulfophenyl)-2H-tetrazolium, inner salt) cell proliferation assay. Results from our studies to assess structure-activity-relationship, specificity of inhibition, and cellular effects of the compounds will be presented.
as §1
For orientation: Tetrazolium assays rely on reduction of a dye to a coloured formazan, in cell work by metabolically active cells.

The test system of another experiment is PfArk2. Kind of experiment: γ-P32 ATP utilization kinase assay with MBP as substrate. The settings on record: GST-tagged PfArk2 2.5 μg, MBP 2.5 μg, autoradiogram (FIG. 17B). It is filed as biochemical, Plasmodium falciparum. The procedure:
GST-tagged PfArk2 was purified using affinity chromatography (FIG. 17A). Compounds were added to a standard kinase assay at indicated concentrations against PfArk-2 (2.5 μg) in a γ-P^32 ATP utilization assay with MBP (2.5 μg) as substrate (FIG. 17B). Upper panels show Coomassie Blue-stained gel and the lower panel is the corresponding autoradiogram.

The mark [3] stands for this setting: P. falciparum Dd2, compound at 1 μM, 72 h.

A word on the IC50: it is the concentration at which inhibition is half-maximal. Usually IC90 stands for the point of the concentration-response curve where the effect stands at 90%. In general, EC50 refers to the concentration that produces a half-maximal response. Higher therefore signals a need for much substance. By EC90 is commonly meant the concentration needed for an effect of 90%. Read a high EC90 as weaker potency. Regarding `COc1cc2c(Nc3ccc(NC(=O)c4ccccc4)cc3)ncnc2cc1OCCCN1CCOCC1` [DC-0005146, ZM-447439], in experiment [1], the IC50 is 1.02 µM and the IC90 is 4.32 µM. Moreover, the “% inhibition (1 μM)” value in experiment [1] (setting [3]) amounted to 75%. Further, in experiment [2], the “Selectivity Index” value turned out to be 3.7, a half-maximal effect (EC50) was put at 3.78 µM and the 90% effect level (EC90) was put at 11.7 µM. Besides, the “Inhibition of PfArk2 activity” value with PfArk2 is “not particularly effective in inhibiting PfArk2 activity”.

Broadly, the inhibition is the drop in the measured response relative to a control, in per cent. Regarding `CCn1cc(-c2ccnc3[nH]c(-c4cccc(CN(C)C)c4)cc23)c(-c2ccc(NC(=O)N(C)C)cc2)n1` [DC-0005154, GSK-1070916], in experiment [1] (Plasmodium falciparum), the half-inhibitory concentration (IC50) came out at 0.441 µM and the 90% effect concentration (IC90) came to 1.72 µM. Besides, the inhibition at 1 µM in experiment [1] (Plasmodium falciparum, P. falciparum Dd2, compound at 1 μM, 72 h) came out at 87%. In addition, in experiment [2], the “Selectivity Index” value worked out at 13.5; the midpoint of the response, the EC50, lay at 5.97 µM; the EC90 is 15.9 µM. In addition, the “Inhibition of PfArk2 activity” value in the experiment with PfArk2 is given as “not particularly effective in inhibiting PfArk2 activity”.

BI-847325 [DC-0005156]: in experiment [1], the IC50 stood at 0.529 µM and the IC90 was found to be 2 µM. For the same molecule, the “% inhibition (1 μM)” value in experiment [1] (setting [3]) amounted to 93%. Further, in experiment [2], the “Selectivity Index” value stood at 2.5, the 50% effective concentration (EC50) stood at 1.31 µM and the 90% effect concentration (EC90) was > 26.7 µM.
